What was measured:
[1] = molecular target: Ribosomal protein S6 kinase alpha-4 (Homo sapiens) (UniProt O75676); conditions: at 10 µM
[2] = molecular target: T1, Phosphorylase b kinase gamma catalytic chain, liver/testis isoform (Homo sapiens) (UniProt P15735); experiment: Selectivity interaction (KinomeScan (DiscoverX)) EUB0000655a PHKG2; conditions: at 10 µM
T1 sequence (whole entry): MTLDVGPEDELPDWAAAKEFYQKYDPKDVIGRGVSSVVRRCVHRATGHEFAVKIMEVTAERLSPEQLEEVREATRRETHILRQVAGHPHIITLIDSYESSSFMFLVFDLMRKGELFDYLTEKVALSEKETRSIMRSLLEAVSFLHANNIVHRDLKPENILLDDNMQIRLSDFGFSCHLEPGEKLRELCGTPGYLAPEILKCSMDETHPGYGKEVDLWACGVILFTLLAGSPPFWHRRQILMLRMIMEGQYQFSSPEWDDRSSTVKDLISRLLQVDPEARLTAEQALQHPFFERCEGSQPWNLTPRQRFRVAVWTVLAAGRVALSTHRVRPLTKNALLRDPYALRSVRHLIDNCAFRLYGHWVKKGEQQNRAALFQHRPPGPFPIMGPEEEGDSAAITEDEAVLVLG

[3] = molecular target: T2, Uncharacterized serine/threonine-protein kinase SBK3 (Homo sapiens) (UniProt P0C264); experiment: Selectivity interaction (KinomeScan (DiscoverX)) EUB0000655a SBK3; conditions: at 10 µM
T2 sequence (whole entry): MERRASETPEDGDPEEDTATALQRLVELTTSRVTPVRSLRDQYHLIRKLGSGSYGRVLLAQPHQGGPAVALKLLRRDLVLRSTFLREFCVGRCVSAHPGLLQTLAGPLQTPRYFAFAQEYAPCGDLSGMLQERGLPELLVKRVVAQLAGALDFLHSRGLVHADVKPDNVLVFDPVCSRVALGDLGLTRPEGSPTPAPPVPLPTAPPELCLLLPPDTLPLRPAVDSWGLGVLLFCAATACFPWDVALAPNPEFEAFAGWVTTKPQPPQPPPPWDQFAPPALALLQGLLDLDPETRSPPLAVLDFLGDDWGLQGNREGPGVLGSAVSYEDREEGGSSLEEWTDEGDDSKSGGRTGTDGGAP

[4] = molecular target: Mitogen-activated protein kinase kinase kinase 20 (Homo sapiens) (UniProt Q9NYL2); experiment: Selectivity interaction (KinomeScan (DiscoverX)) EUB0001079a MAP3K20; conditions: at 1 µM
Mitogen-activated protein kinase kinase kinase 20 (Homo sapiens), sequence (Q9NYL2 2-800 limits assumed): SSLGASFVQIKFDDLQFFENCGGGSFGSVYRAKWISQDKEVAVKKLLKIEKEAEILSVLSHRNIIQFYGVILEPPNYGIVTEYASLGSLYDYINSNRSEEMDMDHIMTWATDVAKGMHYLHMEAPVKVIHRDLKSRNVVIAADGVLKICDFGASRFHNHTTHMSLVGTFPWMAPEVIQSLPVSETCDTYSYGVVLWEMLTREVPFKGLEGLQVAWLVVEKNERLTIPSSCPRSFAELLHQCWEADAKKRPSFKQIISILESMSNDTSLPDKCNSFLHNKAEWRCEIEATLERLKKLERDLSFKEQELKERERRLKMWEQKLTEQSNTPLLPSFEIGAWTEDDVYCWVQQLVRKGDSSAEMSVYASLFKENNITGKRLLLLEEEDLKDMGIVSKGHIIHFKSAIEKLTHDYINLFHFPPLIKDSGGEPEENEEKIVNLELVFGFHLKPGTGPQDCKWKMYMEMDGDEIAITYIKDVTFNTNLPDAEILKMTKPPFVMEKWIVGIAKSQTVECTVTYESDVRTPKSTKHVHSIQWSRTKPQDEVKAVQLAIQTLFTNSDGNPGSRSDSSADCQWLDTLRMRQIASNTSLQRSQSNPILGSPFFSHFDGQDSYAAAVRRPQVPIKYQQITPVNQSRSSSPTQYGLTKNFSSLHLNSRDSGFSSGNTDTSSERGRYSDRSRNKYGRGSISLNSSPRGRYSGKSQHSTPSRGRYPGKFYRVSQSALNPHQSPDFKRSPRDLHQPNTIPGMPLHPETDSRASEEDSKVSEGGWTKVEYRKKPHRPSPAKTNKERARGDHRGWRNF

[5] = molecular target: T3, Eukaryotic translation initiation factor 2-alpha kinase 3 (Homo sapiens) (UniProt Q9NZJ5); experiment: Selectivity interaction (Kinase panel (KiNativ target engagement assay in Jurkat cells)) EUB0001635a EIF2AK3; type: cell-based; conditions: Selectivity number of off-targets 0.0, Selectivity number of targets 233.0, Source Knowledge https://www.sciencedirect.com/science/article/pii/S2451945619300674?via%3Dihub, at 1 µM
T3 sequence (whole entry): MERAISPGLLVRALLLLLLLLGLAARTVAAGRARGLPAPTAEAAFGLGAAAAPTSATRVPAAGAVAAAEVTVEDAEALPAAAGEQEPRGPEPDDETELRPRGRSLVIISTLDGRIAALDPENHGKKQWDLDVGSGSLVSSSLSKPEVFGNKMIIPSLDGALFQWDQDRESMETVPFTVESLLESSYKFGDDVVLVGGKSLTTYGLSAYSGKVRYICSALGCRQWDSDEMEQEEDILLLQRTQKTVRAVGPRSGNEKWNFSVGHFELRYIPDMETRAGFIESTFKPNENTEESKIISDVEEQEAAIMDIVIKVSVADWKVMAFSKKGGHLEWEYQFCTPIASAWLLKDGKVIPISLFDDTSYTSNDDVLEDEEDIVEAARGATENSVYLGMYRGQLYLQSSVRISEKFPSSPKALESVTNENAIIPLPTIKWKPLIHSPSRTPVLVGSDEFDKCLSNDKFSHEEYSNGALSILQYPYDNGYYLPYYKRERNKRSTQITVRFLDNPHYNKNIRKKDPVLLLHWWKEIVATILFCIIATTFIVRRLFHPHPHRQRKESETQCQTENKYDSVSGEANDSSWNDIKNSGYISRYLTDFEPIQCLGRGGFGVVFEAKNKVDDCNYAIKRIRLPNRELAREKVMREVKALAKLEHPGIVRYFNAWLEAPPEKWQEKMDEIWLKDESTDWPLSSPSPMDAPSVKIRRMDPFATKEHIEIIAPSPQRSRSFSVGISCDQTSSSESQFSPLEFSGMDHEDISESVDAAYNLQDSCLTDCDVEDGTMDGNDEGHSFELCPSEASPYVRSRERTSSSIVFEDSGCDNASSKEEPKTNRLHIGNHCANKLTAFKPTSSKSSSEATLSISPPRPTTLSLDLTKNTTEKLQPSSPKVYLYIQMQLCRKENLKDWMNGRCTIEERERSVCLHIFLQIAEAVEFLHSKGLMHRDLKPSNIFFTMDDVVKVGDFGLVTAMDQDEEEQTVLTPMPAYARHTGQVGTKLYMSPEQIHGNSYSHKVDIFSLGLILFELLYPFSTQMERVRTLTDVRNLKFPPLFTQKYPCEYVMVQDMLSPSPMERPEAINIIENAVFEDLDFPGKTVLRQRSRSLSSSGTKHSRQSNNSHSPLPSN

[6] = molecular target: CDK8/Cyclin C (Homo sapiens) (UniProt P49336+P24863); experiment: Selectivity interaction (LanthaScreen Eu Kinase Binding Assay) EUB0001632a CDK8; type: protein-complex assay; conditions: at 10 µM
[7] = test system: Tyrosine-protein kinase JAK2 (Homo sapiens), O60674 [V617F]; experiment: (§1) Selectivity interaction (SelectScreen profiling (Invitrogen)) EUB0000607a JAK2; conditions: at 2 µM
Tyrosine-protein kinase JAK2 (Homo sapiens), O60674 [V617F], sequence (O60674 whole entry V617F): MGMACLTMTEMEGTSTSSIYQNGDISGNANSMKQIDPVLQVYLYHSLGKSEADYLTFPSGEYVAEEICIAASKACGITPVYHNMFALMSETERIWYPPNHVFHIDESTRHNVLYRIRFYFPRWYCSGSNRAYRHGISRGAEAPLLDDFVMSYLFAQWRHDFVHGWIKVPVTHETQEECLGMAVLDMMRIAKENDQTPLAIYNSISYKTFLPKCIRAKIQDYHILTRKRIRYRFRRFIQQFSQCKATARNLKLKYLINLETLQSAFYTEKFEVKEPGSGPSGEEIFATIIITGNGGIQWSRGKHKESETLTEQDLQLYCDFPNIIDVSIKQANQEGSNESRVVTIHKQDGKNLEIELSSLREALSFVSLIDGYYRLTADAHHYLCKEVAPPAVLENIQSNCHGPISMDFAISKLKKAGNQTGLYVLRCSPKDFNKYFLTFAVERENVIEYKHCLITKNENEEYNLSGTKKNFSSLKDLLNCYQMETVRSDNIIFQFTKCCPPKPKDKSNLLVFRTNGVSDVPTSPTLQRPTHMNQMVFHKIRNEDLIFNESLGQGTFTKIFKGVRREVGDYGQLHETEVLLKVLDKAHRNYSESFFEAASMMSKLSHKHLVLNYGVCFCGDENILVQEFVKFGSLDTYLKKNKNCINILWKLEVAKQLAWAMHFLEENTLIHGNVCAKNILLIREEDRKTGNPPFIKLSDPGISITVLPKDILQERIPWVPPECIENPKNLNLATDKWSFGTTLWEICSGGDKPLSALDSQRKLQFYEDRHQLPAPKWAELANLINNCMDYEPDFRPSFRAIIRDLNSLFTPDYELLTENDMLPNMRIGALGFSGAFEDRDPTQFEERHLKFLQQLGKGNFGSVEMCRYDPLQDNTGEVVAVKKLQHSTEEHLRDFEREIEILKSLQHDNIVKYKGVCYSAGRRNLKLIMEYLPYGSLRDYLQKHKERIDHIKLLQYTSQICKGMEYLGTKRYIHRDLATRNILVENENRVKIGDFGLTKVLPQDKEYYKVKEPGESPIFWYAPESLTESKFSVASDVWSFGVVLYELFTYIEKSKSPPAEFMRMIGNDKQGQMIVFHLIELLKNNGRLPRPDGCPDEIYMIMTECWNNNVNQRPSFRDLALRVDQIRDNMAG

[8] = molecular target: Tyrosine-protein kinase JAK2 (Homo sapiens, UniProt O60674); experiment: as §1; conditions: at 2 µM
Tyrosine-protein kinase JAK2, sequence (O60674 whole entry): as the sequence (O60674 whole entry V617F) above, with F617V counted along it

[9] = molecular target: Microtubule-associated serine/threonine-protein kinase 1 (Homo sapiens) (UniProt Q9Y2H9); experiment: Selectivity interaction (KinomeScan (DiscoverX)) EUB0001049a MAST1; conditions: at 1 µM
Microtubule-associated serine/threonine-protein kinase 1 (Homo sapiens), sequence (Q9Y2H9 whole entry, looked up): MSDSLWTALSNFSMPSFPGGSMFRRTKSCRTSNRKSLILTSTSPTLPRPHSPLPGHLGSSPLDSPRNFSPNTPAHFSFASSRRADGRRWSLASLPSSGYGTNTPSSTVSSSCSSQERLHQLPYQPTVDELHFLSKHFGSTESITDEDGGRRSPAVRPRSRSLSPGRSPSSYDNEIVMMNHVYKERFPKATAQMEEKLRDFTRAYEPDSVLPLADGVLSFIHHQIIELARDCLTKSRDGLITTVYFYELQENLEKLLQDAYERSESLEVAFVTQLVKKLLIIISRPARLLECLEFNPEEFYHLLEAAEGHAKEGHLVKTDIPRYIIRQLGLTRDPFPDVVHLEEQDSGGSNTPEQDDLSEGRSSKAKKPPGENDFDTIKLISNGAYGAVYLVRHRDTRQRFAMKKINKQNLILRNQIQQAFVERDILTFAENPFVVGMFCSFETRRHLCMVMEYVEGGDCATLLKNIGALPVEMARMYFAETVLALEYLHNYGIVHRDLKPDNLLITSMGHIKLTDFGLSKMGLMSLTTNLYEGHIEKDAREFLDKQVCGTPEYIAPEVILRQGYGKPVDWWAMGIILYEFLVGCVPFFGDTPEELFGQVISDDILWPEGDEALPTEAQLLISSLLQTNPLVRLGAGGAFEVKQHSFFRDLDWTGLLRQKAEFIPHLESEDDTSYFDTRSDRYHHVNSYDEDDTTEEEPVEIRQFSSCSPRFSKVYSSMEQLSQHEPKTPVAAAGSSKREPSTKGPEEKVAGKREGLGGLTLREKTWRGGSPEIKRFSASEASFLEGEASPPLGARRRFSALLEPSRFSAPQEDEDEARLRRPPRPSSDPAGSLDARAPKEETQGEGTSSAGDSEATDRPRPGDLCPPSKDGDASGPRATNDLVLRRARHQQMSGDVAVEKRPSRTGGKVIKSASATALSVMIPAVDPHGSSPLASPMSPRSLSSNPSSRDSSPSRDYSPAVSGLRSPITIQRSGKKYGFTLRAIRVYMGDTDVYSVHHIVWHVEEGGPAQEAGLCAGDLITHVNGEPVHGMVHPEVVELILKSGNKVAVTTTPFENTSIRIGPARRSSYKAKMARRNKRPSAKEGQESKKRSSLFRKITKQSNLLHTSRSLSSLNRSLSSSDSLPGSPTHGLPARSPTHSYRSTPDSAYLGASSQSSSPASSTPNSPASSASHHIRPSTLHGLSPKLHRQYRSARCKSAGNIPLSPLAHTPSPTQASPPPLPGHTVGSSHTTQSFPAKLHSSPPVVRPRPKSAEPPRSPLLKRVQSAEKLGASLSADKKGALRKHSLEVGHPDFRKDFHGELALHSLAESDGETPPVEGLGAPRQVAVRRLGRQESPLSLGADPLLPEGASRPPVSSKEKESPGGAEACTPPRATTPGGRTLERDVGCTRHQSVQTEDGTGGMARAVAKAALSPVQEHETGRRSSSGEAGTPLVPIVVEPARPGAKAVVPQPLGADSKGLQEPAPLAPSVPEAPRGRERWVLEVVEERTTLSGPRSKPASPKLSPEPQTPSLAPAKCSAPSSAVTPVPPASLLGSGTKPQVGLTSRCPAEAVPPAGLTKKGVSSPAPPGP

[10] = molecular target: STE20/SPS1-related proline-alanine-rich protein kinase (Homo sapiens) (UniProt Q9UEW8); experiment: Selectivity interaction (KinomeScan (DiscoverX)) EUB0000045b STK39

Ribosomal protein S6 kinase alpha-4 (Homo sapiens), sequence (O75676 whole entry, looked up, canonical isoform): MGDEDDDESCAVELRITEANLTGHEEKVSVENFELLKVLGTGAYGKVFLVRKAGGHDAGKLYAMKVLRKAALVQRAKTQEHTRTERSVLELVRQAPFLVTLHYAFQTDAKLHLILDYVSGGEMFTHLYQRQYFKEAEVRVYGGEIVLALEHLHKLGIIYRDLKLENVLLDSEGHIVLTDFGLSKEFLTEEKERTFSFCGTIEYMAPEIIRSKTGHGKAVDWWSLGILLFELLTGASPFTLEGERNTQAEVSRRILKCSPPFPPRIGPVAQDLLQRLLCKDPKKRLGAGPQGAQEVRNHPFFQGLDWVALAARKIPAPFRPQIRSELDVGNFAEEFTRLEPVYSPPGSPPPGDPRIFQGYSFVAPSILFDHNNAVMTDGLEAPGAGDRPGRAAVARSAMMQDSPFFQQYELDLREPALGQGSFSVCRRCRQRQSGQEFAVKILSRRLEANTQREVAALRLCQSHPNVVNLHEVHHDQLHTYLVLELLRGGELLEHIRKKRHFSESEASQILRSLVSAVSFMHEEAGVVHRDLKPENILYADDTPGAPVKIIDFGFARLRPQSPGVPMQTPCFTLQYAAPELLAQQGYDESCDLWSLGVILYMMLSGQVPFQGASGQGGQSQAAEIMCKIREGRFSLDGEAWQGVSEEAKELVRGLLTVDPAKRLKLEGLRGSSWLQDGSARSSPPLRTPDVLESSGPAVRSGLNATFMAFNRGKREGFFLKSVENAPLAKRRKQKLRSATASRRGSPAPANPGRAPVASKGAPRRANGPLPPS

CCN(CC)CCCCNc1ncc2cc(-c3cc(OC)cc(OC)c3)c(NC(=O)NC(C)(C)C)nc2n1
% of control [1]: 100%

CN(C)CCOc1ccc(-c2nc(-c3ccncc3)c(-c3ccc4c(c3)CC/C4=N\O)[nH]2)cc1
% of control [2]: 100% | % of control [3]: 100%

Nc1cnc(N2CCc3cc(S(=O)(=O)Nc4c(F)cc(Cl)cc4F)cc(N4CCCC4=O)c32)nc1 [TP-020n]
% of control [4]: 95%

C=CC(=O)Nc1ccc(C(=O)Nc2[nH]nc3c2CN(C(=O)N[C@H](CN(C)C)c2ccccc2)C3(C)C)cc1
% of engagement [5]: -7.7%

Cn1cc(-n2cnc3c(NCc4nc5cc(Cl)c(Cl)cc5[nH]4)nc(N4CCOCC4)nc32)cn1
% of inhibition [6]: 17.1%

CNC(=O)Nc1ccc(-c2nc(N3CC4CCC(C3)O4)c3cnn(C4CCC5(CC4)OCCO5)c3n2)cc1
% of inhibition [7]: 4% | % of inhibition [8]: -3%

COc1cc(Nc2nc(C)cc(-c3cnn4nc(OC)ccc34)n2)cc(C(F)(F)F)c1
% of control [9]: 100%

C=CC(=O)Nc1cc(-n2c(=O)ccc3cnc4ccc(-c5ccc(NS(C)(=O)=O)cc5)cc4c32)ccc1C
% of control ([10]; at 1 µM): 68% | % of control ([10]; at 10 µM): 100%

Source: ChEMBL document CHEMBL5465560, “Selectivity Literature for EUbOPEN Chemogenomic Library” (2024)
